Data: US20230146455A1, “TREATMENT OF INFLAMMATORY DISEASES WITH PEPTIDES AND PHARMACEUTICAL COMPOSITIONS” (Yuyu Pharma, Inc., priority 2020, published 2023)
Where “and” joins values, the source holds several entries; their conditions need not be identical. Identical values can stand only once. Where a SMILES comes first, the peptide text is derived from it. [ ]: non-standard residue; d: D form. Hyp = O=C(O)[C@@H]1C[C@@H](O)CN1

System: CCL20/MIP-3 alpha
Assay: Example 9 Luminex, LPS hPBMCs: CCL20/MIP-3 alpha
Assay type: cell-based, human
Description: Treatment Human PBMCs were pretreated with YY-101, YDE-011 and YDE-043 or reference compound; Xiidra® at various concentration (ranging from 1 nM to 100 uM) for 2 h before stimulation. An equal volume of 0.5% DMSO was used as a vehicle control. Then, the cells were treated with LPS at 5 ug/ml. The supernatants from treated cells were harvested at 24 h and placed in a 96 well for Luminex cytokine & chemokine profiling using a Luminex 200 multiplex assay (Luminex; R&D system, USA).
The main study arm with triplicate wells per group in a 24-well plate: • 1. Blank • 2. PBMC: 0.5% DMSO • 3. PBMC+LPS (5 ug/ml) • 4. PBMC+YY-101 100 uM • 5. PBMC+YY-101 10 uM • 6. PBMC+YY-101 1 uM • 7. PBMC+YY-101 0.1 uM • 8. PBMC+YY-101 0.01 uM • 9. PBMC+LPS (5 ug/ml)+Xiidra®100 uM • 10. PBMC+LPS (5 ug/ml)+Xiidra® 10 uM • 11. PBMC+LPS (5 ug/ml)+Xiidra® 1 uM • 12. PBMC+LPS (5 ug/ml)+Xiidra®0.1 uM • 13. PBMC+LPS (5 ug/ml)+Xiidra®0.01 uM • 14. PBMC+LPS (5 ug/ml)+Xiidra®0.001 uM • 15. PBMC+LPS (5 ug/ml)+YY-101 100 uM • 16. PBMC+LPS (5 ug/ml)+YY-101 10 uM • 17. PBMC+LPS (5 ug/ml)+YY-101 1 uM • 18. PBMC+LPS (5 ug/ml)+YY-101 0.1 uM • 19. PBMC+LPS (5 ug/ml)+YY-101 0.01 uM • 20. PBMC+LPS (5 ug/ml)+YY-101 0.001 uM • 21. PBMC+LPS (5 ug/ml)+YDE-011 100 uM • 22. PBMC+LPS (5 ug/ml)+YDE-011 10 uM • 23. PBMC+LPS (5 ug/ml)+YDE-011 1 uM • 24. PBMC+LPS (5 ug/ml)+YDE-011 0.1 uM • 25. PBMC+LPS (5 ug/ml)+YDE-011 0.01 uM • 26. PBMC+LPS (5 ug/ml)+YDE-011 0.001 uM • 27. PBMC+LPS (5 ug/ml)+YDE-043 100 uM • 28. PBMC+LPS (5 ug/ml)+YDE-043 10 uM • 29. PBMC+LPS (5 ug/ml)+YDE-043 1 uM • 30. PBMC+LPS (5 ug/ml)+YDE-043 0.1 uM • 31. PBMC+LPS (5 ug/ml)+YDE-043 0.01 uM • 32. PBMC+LPS (5 ug/ml)+YDE-043 0.001 uM
Multiplex assay was used to measure 30 cytokines and chemokines. The 1:2, 1:10 and 1:200 diluted cell supernatant and serial dilution of the standard were dispensed into a 96 well plate at 50 ul/well. Then, the pre-mixed cocktail of antibody-coated magnetic beads was dispensed at 50 ul/well and incubated at room temperature for 2 h in a horizontal orbital microplate shaker at 800±500 rpm. The beads were washed using a magnetic device to prevent loss. The biotin-antibody was dispensed in 50 ul of each well and incubated at room temperature for 1 h in a shaker at 800±500 rpm. After washing, streptavidin-PE was added at 50 ul/well and incubated at room temperature for 30 min in a shaker under the same conditions. Finally, after washing, wash buffer (100 ul/well) was added to the plate and incubated in a shaker for 2 min. The Luminex™ 200 setting were set according to the manufacturer's protocol. The data was calculated with a standard five-parameter logistic nonlinear regression analysis of the data (xPonent software 4.2, USA). The levels of cytokine/chemokine are normalized to the live cell counts (1×10^5 cells/mL) and presented as concentrations per mL (pg/mL or ng/mL).

[1] = PBMC + LPS(5 ug/ml) + test article 0.001 uM, Mean
[2] = PBMC + LPS(5 ug/ml) + test article 0.001 uM, individual replicate
[3] = PBMC + LPS(5 ug/ml) + test article 0.01 uM, Mean
[4] = PBMC + LPS(5 ug/ml) + test article 0.01 uM, individual replicate
[5] = PBMC + LPS(5 ug/ml) + test article 0.1 uM, Mean
[6] = PBMC + LPS(5 ug/ml) + test article 0.1 uM, individual replicate
[7] = PBMC + LPS(5 ug/ml) + test article 1 uM, Mean
[8] = PBMC + LPS(5 ug/ml) + test article 1 uM, individual replicate
[9] = PBMC + LPS(5 ug/ml) + test article 10 uM, Mean
[10] = PBMC + LPS(5 ug/ml) + test article 10 uM, individual replicate
[11] = PBMC + LPS(5 ug/ml) + test article 100 uM, Mean
[12] = PBMC + LPS(5 ug/ml) + test article 100 uM, individual replicate

SMILES	Concentration, CCL20/MIP-3 alpha [1] [pg/mL]	MFI, CCL20/MIP-3 alpha [1]	conc/live cell, CCL20/MIP-3 alpha [1] [pg/10^5]	Concentration, CCL20/MIP-3 alpha [2]	MFI, CCL20/MIP-3 alpha [2]	conc/live cell, CCL20/MIP-3 alpha [2]	Concentration, CCL20/MIP-3 alpha [3] [pg/mL]	MFI, CCL20/MIP-3 alpha [3]	conc/live cell, CCL20/MIP-3 alpha [3] [pg/10^5]	Concentration, CCL20/MIP-3 alpha [4]	MFI, CCL20/MIP-3 alpha [4]	conc/live cell, CCL20/MIP-3 alpha [4]	Concentration, CCL20/MIP-3 alpha [5] [pg/mL]	MFI, CCL20/MIP-3 alpha [5]	conc/live cell, CCL20/MIP-3 alpha [5] [pg/10^5]	Concentration, CCL20/MIP-3 alpha [6]	MFI, CCL20/MIP-3 alpha [6]	conc/live cell, CCL20/MIP-3 alpha [6]	Concentration, CCL20/MIP-3 alpha [7] [pg/mL]	MFI, CCL20/MIP-3 alpha [7]	also measured
CC(C)C[C@H](NC(=O)[C@H](CCC(N)=O)NC(=O)CNC(=O)[C@@H]1C[C@@H](O)CN1)C(=O)NCC(=O)O [YDE-043] (H-[Hyp]GQLG-OH; N-terminus and C-terminus assumed)	222.1	234.3	45.5	237.5 pg/mL and 214.3 pg/mL and 214.7 pg/mL	252.5 and 225.0 and 225.5	54.0 pg/10^5 and 35.7 pg/10^5 and 46.7 pg/10^5	257.4	276.3	49.7	272.1 pg/mL and 235.8 pg/mL and 264.2 pg/mL	294.0 and 250.5 and 284.5	60.5 pg/10^5 and 35.7 pg/10^5 and 52.8 pg/10^5	269.5	290.8	50.0	269.6 pg/mL and 266.7 pg/mL and 272.1 pg/mL	291.0 and 287.5 and 294.0	53.9 pg/10^5 and 47.6 pg/10^5 and 48.6 pg/10^5	257.7	276.7	conc/live cell, CCL20/MIP-3 alpha [7]: 48.8 pg/10^5; Concentration, CCL20/MIP-3 alpha [8]: 267.1 pg/mL and 251.7 pg/mL and 254.2 pg/mL; MFI, CCL20/MIP-3 alpha [8]: 288.0 and 269.5 and 272.5; conc/live cell, CCL20/MIP-3 alpha [8]: 46.1 pg/10^5 and 52.4 pg/10^5 and 48.0 pg/10^5; Concentration, CCL20/MIP-3 alpha [9]: 267.8 pg/mL; MFI, CCL20/MIP-3 alpha [9]: 288.8; conc/live cell, CCL20/MIP-3 alpha [9]: 49.6 pg/10^5; Concentration, CCL20/MIP-3 alpha [10]: 260.1 pg/mL and 260.9 pg/mL and 282.4 pg/mL; MFI, CCL20/MIP-3 alpha [10]: 279.5 and 280.5 and 306.5; conc/live cell, CCL20/MIP-3 alpha [10]: 50.0 pg/10^5 and 48.3 pg/10^5 and 50.4 pg/10^5; Concentration, CCL20/MIP-3 alpha [11]: 358.3 pg/mL; MFI, CCL20/MIP-3 alpha [11]: 399.5; conc/live cell, CCL20/MIP-3 alpha [11]: 56.9 pg/10^5; Concentration, CCL20/MIP-3 alpha [12]: 381.7 pg/mL and 334.8 pg/mL; MFI, CCL20/MIP-3 alpha [12]: 428.5 and 370.5; conc/live cell, CCL20/MIP-3 alpha [12]: 61.6 pg/10^5 and 52.3 pg/10^5
CC(C)C[C@H](NC(=O)CNC(=O)[C@H](CC(C)C)NC(=O)[C@H](CCC(N)=O)NC(=O)CNC(=O)[C@@H]1C[C@@H](O)CN1)C(=O)N[C@@H](C)C(=O)NCC(=O)N1CCC[C@H]1C(=O)N[C@@H](CCCCN)C(=O)O [YDE-011] (H-[Hyp]GQLGLAGPK-OH)	246.5	263.3	46.9	264.2 pg/mL and 223.2 pg/mL and 252.1 pg/mL	284.5 and 235.5 and 270.0	58.7 pg/10^5 and 38.5 pg/10^5 and 43.5 pg/10^5	255.6	274.2	44.2	233.3 pg/mL and 258.8 pg/mL and 274.6 pg/mL	247.5 and 278.0 and 297.0	37.0 pg/10^5 and 41.7 pg/10^5 and 53.8 pg/10^5	239.4	254.8	42.0	238.3 pg/mL and 231.6 pg/mL and 248.4 pg/mL	253.5 and 245.5 and 265.5	36.1 pg/10^5 and 46.3 pg/10^5 and 43.6 pg/10^5	211.3	221.5	conc/live cell, CCL20/MIP-3 alpha [7]: 42.2 pg/10^5; Concentration, CCL20/MIP-3 alpha [8]: 203.6 pg/mL and 208.7 pg/mL and 221.5 pg/mL; MFI, CCL20/MIP-3 alpha [8]: 212.5 and 218.5 and 233.5; conc/live cell, CCL20/MIP-3 alpha [8]: 37.0 pg/10^5 and 43.5 pg/10^5 and 46.1 pg/10^5; Concentration, CCL20/MIP-3 alpha [9]: 230.3 pg/mL; MFI, CCL20/MIP-3 alpha [9]: 244.0; conc/live cell, CCL20/MIP-3 alpha [9]: 43.9 pg/10^5; Concentration, CCL20/MIP-3 alpha [10]: 234.1 pg/mL and 222.3 pg/mL and 234.5 pg/mL; MFI, CCL20/MIP-3 alpha [10]: 248.5 and 234.5 and 249.0; conc/live cell, CCL20/MIP-3 alpha [10]: 43.4 pg/10^5 and 38.3 pg/10^5 and 49.9 pg/10^5; Concentration, CCL20/MIP-3 alpha [11]: 323.4 pg/mL; MFI, CCL20/MIP-3 alpha [11]: 356.5; conc/live cell, CCL20/MIP-3 alpha [11]: 53.3 pg/10^5; Concentration, CCL20/MIP-3 alpha [12]: 342.2 pg/mL and 319.4 pg/mL and 308.7 pg/mL; MFI, CCL20/MIP-3 alpha [12]: 379.5 and 351.5 and 338.5; conc/live cell, CCL20/MIP-3 alpha [12]: 56.1 pg/10^5 and 52.4 pg/10^5 and 51.5 pg/10^5
